Experimental data from PubChem BioAssay (NCI).
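48-hour exposure; five concentrations; linearly interpolated endpoints. GI50 is the concentration that inhibits growth by half. TGI denotes the concentration required for complete inhibition of growth.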

How the values were obtained:
Experiment in all cases: NCI anticancer screen, dose series, 48 h
[1] = tested on: A498 renal
[2] = tested on: ACHN renal
[3] = tested on: CCRF-CEM leukemia
[4] = tested on: DU-145 prostate
[5] = tested on: HCT-15 colon
[6] = tested on: HT29 colon
[7] = tested on: K-562 leukemia
[8] = tested on: MOLT-4 leukemia
[9] = tested on: NCI/ADR-RES ovarian
[10] = tested on: OVCAR-4 ovarian
[11] = tested on: OVCAR-5 ovarian
[12] = tested on: SN12C renal
[13] = tested on: SNB-75 CNS
[14] = tested on: SR leukemia
[15] = tested on: SW-620 colon
[16] = tested on: TK-10 renal
[17] = tested on: UACC-62 melanoma
[18] = tested on: 786-0 renal
[19] = tested on: A549 NSCLC
[20] = tested on: COLO 205 colon
[21] = tested on: EKVX NSCLC
[22] = tested on: HCC-2998 colon
[23] = tested on: HL-60(TB) leukemia
[24] = tested on: HOP-62 NSCLC
[25] = tested on: HOP-92 NSCLC
[26] = tested on: HS 578T breast
[27] = tested on: IGROV1 ovarian
[28] = tested on: KM12 colon
[29] = tested on: LOX IMVI melanoma
[30] = tested on: M14 melanoma
[31] = tested on: MALME-3M melanoma
[32] = tested on: MCF7 breast
[33] = tested on: MDA-MB-231 breast
[34] = tested on: MDA-MB-435
[35] = tested on: NCI-H23 lung
[36] = tested on: NCI-H460 lung
[37] = tested on: NCI-H522 lung
[38] = tested on: OVCAR-3 ovarian
[39] = tested on: OVCAR-8 ovarian
[40] = tested on: PC-3 prostate
[41] = tested on: RXF 393 renal
[42] = tested on: SF-268 CNS
[43] = tested on: SF-295 CNS
[44] = tested on: SF-539 CNS
[45] = tested on: SK-MEL-2 melanoma
[46] = tested on: SK-MEL-28 melanoma
[47] = tested on: SK-MEL-5 melanoma
[48] = tested on: SK-OV-3 ovarian
[49] = tested on: SNB-19 CNS
[50] = tested on: T-47D breast
[51] = tested on: U251 CNS
[52] = tested on: UACC-257 melanoma
[53] = tested on: UO-31 renal

In the case of `CCCc1cn2c(/C=N/N=C(N)N)c(-c3cc([N+](=O)[O-])c(Cl)cc3Cl)nc2s1`, the TGI [1] is reported as 2880 nM, the TGI [2] is reported as 3160 nM and the TGI [3] is reported as 860 nM. For the same compound, the TGI [4] was 3530 nM, the TGI [5] was 3020 nM and the TGI [6] was 2460 nM. For the same compound, the TGI [7] was 2490 nM, the TGI [8] was 873 nM and the TGI [9] was 4310 nM. For the same compound, the TGI [10] was 2830 nM, the TGI [11] was 3120 nM and the TGI [12] was 3160 nM. It also gave a TGI [13] of 3070 nM, a TGI [14] of 2920 nM and a TGI [15] of 2970 nM. The TGI [16] was 2330 nM and the TGI [17] was 3150 nM.
`COC(=O)CCc1n(Cc2ccc3ccccc3c2)c2ccccc2[n+]1Cc1ccc2ccccc2c1` was tested, and the GI50 [18] was 1140 nM, the TGI [18] was 2450 nM and the GI50 [1] was 1530 nM. For the same compound, the TGI [1] was 3450 nM, the GI50 [19] was 2920 nM and the TGI [19] was 11900 nM. It also gave a GI50 [2] of 3710 nM, a TGI [2] of 13100 nM and a GI50 [20] of 614 nM. The TGI [20] was 2210 nM, the GI50 [4] was 1450 nM and the TGI [4] was 3340 nM. For the same compound, the GI50 [21] was 1630 nM, the TGI [21] was 5630 nM and the GI50 [22] was 910 nM. It also gave a TGI [22] of 2430 nM, a GI50 [5] of 2710 nM and a TGI [5] of 8080 nM. It also gave a GI50 [23] of 207 nM, a TGI [23] of 799 nM and a GI50 [24] of 1660 nM. For the same compound, the TGI [24] was 3460 nM, the GI50 [25] was 152 nM and the TGI [25] was 1120 nM. The GI50 [26] was 1430 nM, the TGI [26] was 3470 nM and the GI50 [6] was 571 nM. For the same compound, the TGI [6] was 1970 nM, the GI50 [27] was 441 nM and the TGI [27] was 1900 nM. For the same compound, the GI50 [7] was 379 nM, the TGI [7] was 1630 nM and the GI50 [28] was 685 nM. The TGI [28] was 2120 nM, the GI50 [29] was 557 nM and the TGI [29] was 1930 nM. For the same compound, the GI50 [30] was 524 nM, the TGI [30] was 2040 nM and the GI50 [31] was 1050 nM. For the same compound, the TGI [31] was 2630 nM, the GI50 [32] was 795 nM and the TGI [32] was 2340 nM. For the same compound, the GI50 [33] was 682 nM, the TGI [33] was 2190 nM and the GI50 [34] was 462 nM. For the same compound, the TGI [34] was 1800 nM, the GI50 [8] was 1130 nM and the TGI [8] was 2980 nM. The GI50 [35] was 583 nM, the TGI [35] was 2560 nM and the GI50 [36] was 1180 nM. For the same compound, the TGI [36] was 2700 nM, the GI50 [37] was 440 nM and the TGI [37] was 1770 nM. For the same compound, the GI50 [9] was 18700 nM, the TGI [9] was 65100 nM and the GI50 [38] was 682 nM. It also gave a TGI [38] of 2150 nM, a GI50 [10] of 315 nM and a TGI [10] of 1890 nM. It also gave a GI50 [11] of 1180 nM, a TGI [11] of 2770 nM and a GI50 [39] of 1270 nM. The TGI [39] was 3020 nM, the GI50 [40] was 402 nM and the TGI [40] was 1740 nM. It also gave a GI50 [41] of 874 nM, a TGI [41] of 2230 nM and a GI50 [42] of 1380 nM. The TGI [42] was 2990 nM, the GI50 [43] was 1320 nM and the TGI [43] was 2860 nM. For the same compound, the GI50 [44] was 1070 nM, the TGI [44] was 2450 nM and the GI50 [45] was 1230 nM. It also gave a TGI [45] of 2720 nM, a GI50 [46] of 800 nM and a TGI [46] of 2460 nM. For the same compound, the GI50 [47] was 415 nM, the TGI [47] was 1560 nM and the GI50 [48] was 1890 nM. It also gave a TGI [48] of 4850 nM, a GI50 [12] of 833 nM and a TGI [12] of 2190 nM. For the same compound, the GI50 [49] was 582 nM, the TGI [49] was 1980 nM and the GI50 [13] was 930 nM. It also gave a TGI [13] of 2260 nM, a GI50 [14] of 403 nM and a TGI [14] of 2050 nM. It also gave a GI50 [15] of 1270 nM, a TGI [15] of 2850 nM and a GI50 [50] of 222 nM. It also gave a TGI [50] of 2650 nM, a GI50 [16] of 1490 nM and a TGI [16] of 2960 nM. It also gave a GI50 [51] of 1040 nM, a TGI [51] of 2300 nM and a GI50 [52] of 549 nM. The TGI [52] was 2370 nM, the GI50 [17] was 361 nM and the TGI [17] was 1590 nM. For the same compound, the GI50 [53] was 2250 nM and the TGI [53] was 10200 nM.
